Structures are written as SMILES.

The test system of assay [1] is MiaPaCa-2-eGFP pancreatic cancer cells implanted in RAG2/Cγ double mutant Balbc xenograft mice. The experiment in a line: MiaPaCa-2-eGFP pancreatic cancer xenograft in RAG2/Cγ double mutant Balbc mice. The format is in vivo, mouse. To be noted: for Liver metastasis percent inhibition: vs untreated day 51. The protocol:
Tumour measurements were taken twice a week.
MiaPaCa-2-eGFP pancreatic cancer cells at 1.5×10^6 in 0.2 mL were implanted subcutaneously in the right back flank of these mice. Each mouse in the study was identified by an ear punch number. Twice a week each mouse following implantation of the cancer cells was monitored for tumour volume growth (length and width) at the site of implantation, body weights, and body condition scoring. Scoring the body condition of rodents is a non-invasive method for assessing health and establishing endpoints for adults where body weight is not a viable monitoring tool, such as with tumour models. Body condition scores (BC) range from 1(emaciation) to 5 (obesity). An anticipated BCS of 2—under conditioned—or lower, requires justification in the protocol. Scores are determined by frequent visual and hands-on examination of each animal. The hands-on evaluation is done by gently holding the mouse by the base of the tail and passing a finger over the sacroiliac bones. The findings are matched to the descriptions and diagrams of BC ranges to determine a score. Scores are documented for each animal.

Assay [2] concerns BxPC-3 cells. The experiment in a line: Cell viability of BxPC-3 pancreatic cancer cells in culture (MTT or WST-1, 72 hrs). Format: cell-based, human. The following applies: BxPC-3; for Chemo-drug LD50: MTT, 72 hrs. A general note: Tetrazolium dyes change colour on reduction, which living cells bring about.
Assay [3] deals with MiaPaCa-2 cells. The experiment in a line: Cell viability of MiaPaCa-2 pancreatic cancer cells in culture (MTT or WST-1, 72 hrs). Format: cell-based, human. The following applies: for Chemo-drug LD50 / Chemo-drug sensitivity with oseltamivir phosphate (fold increase): MiaPaCa-2; for Chemo-drug LD50: MTT, 72 hrs; for LD50 MiaPaCa-2: oseltamivir phosphate analogues (TD), WST-1, 72 hrs.

Assay [4] has as its system PANC-1 cells. The experiment in a line: Cell viability of PANC-1 pancreatic cancer cells in culture (MTT or WST-1, 72 hrs). The format is cell-based, human. The following applies: for Chemo-drug LD50 / Chemo-drug sensitivity with oseltamivir phosphate (fold increase): PANC-1; for Chemo-drug LD50: MTT, 72 hrs; for LD50 PANC-1: oseltamivir phosphate analogues (TD), WST-1, 72 hrs.

Assay [5] concerns the target Neu1 sialidase (Mus musculus, UniProt O35657). The experiment in a line: LPS-induced Neu1 sialidase activity in live BMA macrophage cells (4-MUNANA). The format is cell-based. The arrangement: endogenous in cells; host or cells: BMA macrophage cells. The following applies: LPS-induced Neu1 sialidase activity, live BMA macrophage cells. The method, then: TLR-expressing BMA macrophage cells were grown on 12 mm circular glass slides in culture media containing DMEM supplemented with 10% fetal calf serum. […] Fluorescent images were taken after 2-3 minutes using epi-fluorescent microscopy (Zeiss Imager M2, 40× objective).
This recently developed assay was used to detect sialidase activity on the surface of viable cells. […] The inhibitory potency of a series of amide-linked C9 modified DANA (2-deoxy-2,3-dehydro-D-N-acetylneuraminic add) analogues on lipopolysaccharide (LPS)-induced Neu1 sialidase activity was assessed in live BMA macrophage cells.

Where [6] appears, read: day 62, tamoxifen 0.1 mg/kg alone or with oseltamivir phosphate 100 mg/kg daily.
The mark [7] stands for this setting: day 66, tamoxifen 0.1 mg/kg alone or with oseltamivir phosphate 100 mg/kg daily.
[8] abbreviates: co-treatment oseltamivir phosphate 730 μM.
The mark [9] stands for this setting: co-treatment oseltamivir phosphate 1460 μM.
Where [10] appears, read: chemo-drug + oseltamivir phosphate 10 mg/kg daily, Altima day 70, Abraxane day […].
Where [11] appears, read: chemo-drug alone, Altima 100 mg/kg day 70, Abraxane 200 mg/kg day 87.
[12] abbreviates: day 48, chemo-drug (alimta 100, abraxane 200 mg/kg) + oseltamivir phosphate 10 mg/kg daily i.p.
Setting [13] is: day 48, chemo-drug alone (alimta 100 mg/kg, abraxane 200 mg/kg i.p.).
[14] abbreviates: day 63, chemo-drug (alimta 100, abraxane 200 mg/kg) + oseltamivir phosphate 10 mg/kg daily.
Setting [15] is: day 63, chemo-drug alone (alimta 100 mg/kg, abraxane 200 mg/kg).

As to `CC/C(=C(\c1ccccc1)c1ccc(OCCN(C)C)cc1)c1ccccc1` [tamoxifen, Tamoxifen], the “% Inhibition To untreated” value in assay [1] (day 59, tamoxifen 0.1 mg/kg alone or with oseltamivir phosphate 100 mg/kg daily) is reported as 57%; in assay [1] (setting [6]), 21%; in assay [1] (setting [7]) it was 0%. Further, the Tumour volume in assay [1] (day 59, tamoxifen 0.1 mg/kg i.p. alone or with oseltamivir phosphate 100 mg/kg i.p. daily) is listed as 960 ± 208 (4) mm^3; in assay [1] (setting [6]), 1738 ± 328 (4) mm^3; in assay [1] (setting [7]), 2650 ± 360 (3) mm^3. For the same compound, the “Survival of tumour bearing mice” value in assay [1] (tamoxifen 0.1 mg/kg alone or with oseltamivir phosphate 100 mg/kg daily, untreated control day 60) was determined as 66 days. For the same compound, the “Chemo-drug LD50” value in assay [2] (setting [8]) amounted to 3 µM; in assay [2] (setting [9]), 0.078 µM; in assay [2] (oseltamivir phosphate 0 μM) it was 9 µM; in assay [3] (setting [8]), 0.8 µM; in assay [3] (setting [9]), 0.078 µM; in assay [3] (oseltamivir phosphate 0 μM), 7.0 µM. Also, the “Chemo-drug LD50” value is 0.8 µM in assay [4] (setting [8]), 0.078 µM in assay [4] (setting [9]) and 12.5 µM in assay [4] (oseltamivir phosphate 0 μM). Moreover, the “Chemo-drug sensitivity with oseltamivir phosphate (fold increase)” value in assay [2] (oseltamivir phosphate 730 μM) is 3 fold increase; in assay [2] (oseltamivir phosphate 1460 μM), 115 fold increase; in assay [3] (oseltamivir phosphate 730 μM), 9 fold increase; in assay [3] (oseltamivir phosphate 1460 μM), 90 fold increase; in assay [4] (oseltamivir phosphate 730 μM) it was 16 fold increase; in assay [4] (oseltamivir phosphate 1460 μM) it was 160 fold increase.

With `CCCCC(=O)NC[C@H](O)[C@H](O)C1OC(C(=O)O)=CC(O)[C@H]1NC(C)=O` (stereo partly shown) [B5], the IC50 – broadly, the concentration at which inhibition is half-maximal – in assay [5] was 1.45 µM.

Turning to `CC(=O)N[C@H]1[C@@H]2OC(C)(C)O[C@@H]2C(C(=O)[O-])=C[C@H]1O.[Na+]`, the “LD50 MiaPaCa-2” value in assay [3] came out at 2.8 µM. In addition, in assay [4], the “LD50 PANC-1” value stood at 349 µM.

`Nc1nc2[nH]cc(CCc3ccc(C(=O)N[C@@H](CCC(=O)O)C(=O)O)cc3)c2c(=O)[nH]1` [alimta, Pemetrexed]: the “Survival of tumour bearing mice” value stood at 70 days in assay [1] (chemo-drug (Alimta 100, Abraxane 200 mg/kg) + oseltamivir phosphate 10 mg/kg daily, untreated control day 51) and 70 days in assay [1] (chemo-drug monotherapy (Alimta 100 mg/kg, Abraxane 200 mg/kg), untreated control day 51). Also, the “Liver Metastasis (avg no. nodules)” value is 3 in assay [1] (chemo-drug + oseltamivir phosphate 10 mg/kg daily, Altima 100 mg/kg day 70, Abraxane 200 mg/kg day […]) and 5 in assay [1] (setting [11]). Moreover, the “Metastases (size, mm)” value was 0.2-0.5 mm in assay [1] (setting [10]) and 0.2-1.0 mm in assay [1] (setting [11]). The entries for the “Liver metastasis percent inhibition” value in assay [1] (setting [10]) and in assay [1] (setting [11]) were 91% and 85%, respectively. Besides, the “% Inhibition To untreated” value turned out to be 77% in assay [1] (setting [12]); 77% in assay [1] (day 48, chemo-drug (alimta 100, abraxane 200 mg/kg) + oseltamivir phosphate 10 mg/kg daily i.p., listed as Almita); 72% in assay [1] (setting [13]); 3% in assay [1] (setting [14]); 40% in assay [1] (setting [15]). Also, the Tumour volume in assay [1] (setting [12]) was 189 mm^3; in assay [1] (setting [13]) it was 225 mm^3; in assay [1] (setting [14]), 787 mm^3; in assay [1] (setting [15]), 482 mm^3.

As to `CCCC(=O)NC[C@H](O)[C@H](O)C1OC(C(=O)O)=CC(O)[C@H]1NC(C)=O` (stereo partly shown) [B1], the IC50 in assay [5] is 0.0138 µM.

The compound `CC(=O)N[C@@H]1C(O)C=C(C(=O)O)OC1[C@@H](O)[C@@H](O)CNC(=O)C1CCCC1` (stereo partly shown) [B6] showed an IC50 in assay [5] of 76.6 µM. This IC50 is about 5600-fold higher than that of the compound before.

Compound `CC(=O)N[C@@H]1C(O)C=C(C(=O)O)OC1[C@@H](O)[C@@H](O)CNC(=O)C1CC1` (stereo partly shown) [B9] gave an IC50 in assay [5] of 1120 µM.

Compound `CC(=O)NC[C@H](O)[C@H](O)C1OC(C(=O)O)=CC(O)[C@H]1NC(C)=O` (stereo partly shown) [B4] had an IC50 in assay [5] of 2.98 µM.

As to `CC(=O)N[C@H]1[C@H](O)C=C(C(=O)[O-])C[C@@H]1N.[Na+]` [A2, Sodium; 4-acetylamino-5-amino-3-hydroxy-cyclohex-1-enecarboxylate], in assay [3], the “LD50 MiaPaCa-2” value amounted to 1.97 µM. Further, the “LD50 PANC-1” value in assay [4] is 0.01 µM.

For the compound `CC(=O)N[C@@H]1C(O)C=C(C(=O)O)OC1[C@@H](O)[C@@H](O)CNC(=O)C(C)C` (stereo partly shown) [B7], half-maximal inhibition in assay [5] (IC50) was put at 683 µM.

With `CCC(CC)O[C@@H]1C=C(C(=O)[O-])[C@H]2OC(C)(C)O[C@H]2[C@H]1NC(C)=O.[Na+]` [A6, Sodium; 7-acetylamino-6-(1-ethyl-propoxy)-2,2-dimethyl-3a,6,7,7a-tetrahydro-benzo[1,3]dioxole-4-carboxylate], the “LD50 MiaPaCa-2” value in assay [3] was >2000 µM. Also, the “LD50 PANC-1” value in assay [4] was >2000 µM.

`CCC(CC)C(=O)NC[C@H](O)[C@H](O)C1OC(C(=O)O)=CC(O)[C@H]1NC(C)=O` (stereo partly shown) [B8] had an IC50 in assay [5] of 1050 µM.

Turning to `CC(=O)N[C@@H]1CC[C@@](O)(C(=O)[O-])[C@H]2OC(C)(C)O[C@@H]12.[Na+]`, in assay [3], the “LD50 MiaPaCa-2” value was 2.1 µM. Further, in assay [4], the “LD50 PANC-1” value was >1000 µM.

`CCC(C)C(=O)NC[C@H](O)[C@H](O)C1OC(C(=O)O)=CC(O)[C@H]1NC(C)=O` (stereo partly shown) [B2] gave an IC50 in assay [5] of 29.7 µM.

With `CC(=O)N[C@@H]1C(O)C=C(C(=O)O)OC1[C@@H](O)[C@@H](O)CNC(=O)C(C)(C)C` (stereo partly shown) [B10], the IC50 in assay [5] is 411 µM.

Turning to `CC(=O)N[C@@H]1/C(=N/O)C=C(C(=O)[O-])[C@H]2OC(C)(C)O[C@H]21.[Na+]` [A5, Sodium; 7-acetylamino-6-hydroxyimino-2,2-dimethyl-3a,6,7,7a-tetrahydro-benzo[1,3]dioxole-4-carboxylate], the “LD50 MiaPaCa-2” value in assay [3] worked out at 24 µM. Further, in assay [4], the “LD50 PANC-1” value was 3 µM.

For `O=c1[nH]cc(F)c(=O)[nH]1` [5-fluoruracil, Fluorouracil], the “Chemo-drug LD50” value was 0.78 µM in assay [2] (setting [8]); 0.078 µM in assay [2] (setting [9]); 12.5 µM in assay [2] (oseltamivir phosphate 0 μM); 0.6 µM in assay [3] (setting [8]); 0.078 µM in assay [3] (setting [9]); 2.20 µM in assay [3] (oseltamivir phosphate 0 μM). Moreover, the “Chemo-drug LD50” value in assay [4] (setting [8]) was 0.8 µM; in assay [4] (setting [9]), 0.078 µM; in assay [4] (oseltamivir phosphate 0 μM), 3.1 µM. For the same compound, the “Chemo-drug sensitivity with oseltamivir phosphate (fold increase)” value in assay [2] (oseltamivir phosphate 730 μM) is 16 fold increase; in assay [2] (oseltamivir phosphate 1460 μM), 160 fold increase; in assay [3] (oseltamivir phosphate 730 μM), 4 fold increase; in assay [3] (oseltamivir phosphate 1460 μM) it was 28 fold increase; in assay [4] (oseltamivir phosphate 730 μM) it was 4 fold increase; in assay [4] (oseltamivir phosphate 1460 μM), 40 fold increase.

Regarding `CC(=O)N[C@@H]1C(O)C=C(C(=O)O)OC1[C@@H](O)[C@@H](O)CNC(=O)C1CCCCC1` (stereo partly shown) [B3], the IC50 in assay [5] was 0.0039 µM.

Take `CCOC1C(C(=O)[O-])=C[C@@H](O)[C@@H](NC(C)=O)[C@@H]1O.[Na+]` (stereo partly shown) [A1, Sodium; 4-acetylamino-6-ethoxy-3,5-dihydroxy-cyclohex-1-enecarboxylate]: the “LD50 MiaPaCa-2” value in assay [3] was 132 µM. In addition, in assay [4], the “LD50 PANC-1” value was 848 µM.

For the origin of these results see patent US10350188B2, “Use of Neu1 sialidase inhibitors in the treatment of cancer” (priority 2011, dated 2019).
